Results taken from patent US5334723A, “2-piperidinecarboxylic acid derivative, oncogene suppressor and agent for obtaining revertants” (Meiji Seika Kaisha, Ltd., priority 1991, dated 1994).
Values after ≈ are worked out from the molar mass of the structure shown.

Tests used:
[1] = tested on: MethA cells (solid cancer); assay: Antitumor effect on mouse tumor cells (MTT assay), MethA; format: cell-based; settings: Meth-A, 72 h, 3-day incubation
Protocol: (§1) The P388 and L1210 cells are derived from mouse leukemia. The MethA cells, the 3LL cells and the B16 cells are derived from solid cancer, Lewis lung cancer and melanoma, respectively.
(§2) The cells subcultured in a CO2 incubator were each suspended in an RPM1 medium or Dulbecco's modified MEM medium, supplemented with 10%(v/v) fetal serum so as to give a cell density of 5×10^4 cells/mi. To a 135 μl portion of the suspension was added each test compound shown in Table 1 followed by 3-day incubation in a CO2 incubator. After the incubation was completed, 50% inhibition concentration (IC50) was determined by the MTT assay (Igaku no Ayumi, 128, 733 (1984)).

[2] = tested on: L1210 cells (mouse leukemia); assay: Antitumor effect on mouse tumor cells (MTT assay), L1210; format: cell-based; settings: 72 h, 3-day incubation
Protocol: as §1, §2

[3] = tested on: P388 cells (mouse leukemia); assay: Antitumor effect on mouse tumor cells (MTT assay), P388; format: cell-based; settings: 72 h, 3-day incubation
Protocol: as §1, §2

[4] = tested on: OG56 (human lung cancer); assay: Antitumor effect on human tumor cells (MTT assay), OG56; format: cell-based; settings: same manner as Test Example 1
Protocol: as §2
(§3) The antitumor effects of the compounds of the present invention were evaluated in the same manner as in Test Example 1 except that various human tumor cells were employed. The HL60 cells, the CCRF-CCM cells and the QG5 cells are derived from human leukemia, human T cells and human lung cancer, respectively.

[5] = tested on: revertant cells transplanted onto BALB/C nude mice; assay: Carcinogenic ability of revertant cells on nude mouse; format: in vivo; settings: revertants of Example 7, 3×10^5 cells
[6] = tested on: HL60 cells (human leukemia); assay: Antitumor effect on human tumor cells (MTT assay), HL60; format: cell-based; settings: HL-60, same manner as Test Example 1
Protocol: as §2, §3

[7] = tested on: normal NIH3T3 cells; assay: Morphology of normal NIH3T3 cells, microscopic observation; format: cell-based, mouse; settings: 40 μg/ml, 6 days
Protocol: (§4) NIH3T3 cells transformed with the activated c-Ha-ras gene and normal NIH3T3 cells were incubated for 6 days in the presence of 40 μg/ml of the compound obtained in Example 3 under the same conditions as in Example 6. The cells were microscopically observed in detail.

[8] = tested on: NIH3T3 cells transformed with the activated c-Ha-ras gene; assay: Acquisition of revertant cells from transformed NIH3T3 cells, microscopic observation; format: cell-based, mouse; settings: 40 μg/ml, 6 days
Protocol: as §4

[9] = Acute toxicity, intravenous administration to male BDF mice; format: in vivo, mouse; settings: 3 mice per group
Excerpt: The compounds of the present invention were intravenously administered to male BDF mice in order to examine the acute toxicity (each group having 3 mice).

[10] = tested on: NIH3T3 cells transformed with the activated ras gene; assay: Growth inhibition of NIH3T3 cells transformed with activated c-Ha-ras gene; format: cell-based, mouse; settings: 40 μg/ml, 1st to 6th days, FIG. 1
Protocol: (§5) NIH3T3 cells transformed with the activated ras gene (Proc. Natl. Acad. Sci. USA, 81, 4771-4775 (1984)) and normal NIH3T3 cells were incubated in a Dulbecco-modified Eagle medium containing 5% bovine serum. The initial cell concentrations were adjusted to 1×10^4 cells/mi. The compound obtained in Example 3 was added to a concentration of 40 μg/ml and the cell numbers were counted with the lapse of time from the 1st to the 6th days.

[11] = tested on: CCRFCEM (human T cells); assay: Antitumor effect on human tumor cells (MTT assay), CCRFCEM; format: cell-based; settings: CCRF-CEM, same manner as Test Example 1
Protocol: as §2, §3

[12] = tested on: B16 cells (melanoma); assay: Antitumor effect on mouse tumor cells (MTT assay), B16; format: cell-based; settings: 72 h, 3-day incubation
Protocol: as §1, §2

[13] = tested on: ras gene product p21; assay: Expression of ras gene product p21 in revertant cells (Western blotting); format: cell-based; settings: revertants isolated in Example 7, FIG. 2
Protocol: 2×10^6 portions of these cells were collected and each suspended in 1 ml of a buffer solution (100 mM NaCl, 20 mM Tris hydrochloride (pH 7.5), 5 mM MgCl2, 1% NonidetP-40 (polyoxyethylene(9)p-tert-octylphenol), 0.5% sodium deoxycholate, protease inhibitor) and then ground with a Potter homogenizer. After centrifuging at 3600 r.p.m. for 60 minutes, 10 μg portions of proteins were isolated from the supernatant by 12.5% polyacrylamide gel electrophoresis.
Then, the proteins in the gel were transferred into a nitrocellulose membrane and reacted with NCC-RAS-004, which was a monoclonal antibody for p21, at 4° C. for 24 hours to perform Western blotting. After reacting with rat Ig and ^125 I-Protein A, radioautography was performed.

[14] = tested on: 3LL cells (Lewis lung cancer); assay: Antitumor effect on mouse tumor cells (MTT assay), 3LL; format: cell-based; settings: 72 h, 3-day incubation
Protocol: as §1, §2

[15] = tested on: normal NIH3T3 cells; assay: Growth of normal NIH3T3 cells; format: cell-based, mouse; settings: 40 μg/ml, 1st to 6th days, FIG. 1
Protocol: as §5

[16] = tested on: NIH3T3 cells transformed with the activated ras gene; settings: JP-A-1-110627, cited from earlier work
[17] = tested on: normal NIH3T3 cells; settings: 500 μg/ml, JP-A-1-110627; cited from earlier work
[18] = Proceedings of 50th General Meeting of Japan Society of Cancer, 1991; cited from earlier work

O=C(O)[C@@H]1CC=CC(=S)N1 [Compound of Ex. 3]
IC50 [1]: 11 µg/mL (≈ 70 µM)
IC50 [2]: 9 µg/mL (≈ 57.3 µM)
IC50 [3]: 5 µg/mL (≈ 31.8 µM)
IC50 [4]: 70 µg/mL (≈ 445 µM)
tumor formation by revertants on nude mice [5]: scarcely induced tumor formation
IC50 [6]: 20 µg/mL (≈ 127 µM)
morphological change of normal NIH3T3 cells [7]: no morphological change
death of transformed NIH3T3 cells [8]: partially died
revertants among surviving transformed NIH3T3 cells (morphology) [8]: revertants which were flat and had nuclei and nucleoli morphologically similar to the normal NIH3T3 cells
Survival dose (doses causing no death) [9]: 800 mg/kg
growth inhibition of NIH3T3 cells transformed with the activated ras gene [10]: inhibited the growth
IC50 [11]: 20 µg/mL (≈ 127 µM)
IC50 [12]: 45 µg/mL (≈ 286 µM)
expression of activated p21 in revertants [13]: the activated p21 was expressed in the revertants
IC50 [14]: 11 µg/mL (≈ 70 µM)
growth of normal NIH3T3 cells [15]: continued to grow

N[C@@H](Cc1ccc(O)cn1)C(=O)O [azatyrosine, L-β-(5-hydroxy-2-pyridyl)alanine]
growth inhibition of NIH3T3 cells transformed with the activated ras gene (azatyrosine) ([16]; 500 μg/ml): selectively inhibited the growth
nature of cells surviving after treatment with azatyrosine [16]: revertant cells
growth inhibition of normal NIH3T3 cells (azatyrosine) [17]: never inhibited the growth

N=C1C=CC[C@@H](C(=O)O)N1 [SF2698]
IC50 [1]: 46 µg/mL (≈ 328 µM)
IC50 [2]: 65 µg/mL (≈ 464 µM)
IC50 [3]: 120 µg/mL (≈ 856 µM)
IC50 [4]: 80 µg/mL (≈ 571 µM)
IC50 [6]: 45 µg/mL (≈ 321 µM)
Survival dose (doses causing no death) [9]: 300 mg/kg
IC50 [11]: 45 µg/mL (≈ 321 µM)
IC50 [12]: 41 µg/mL (≈ 293 µM)
IC50 [14]: 51 µg/mL (≈ 364 µM)
antitumor activity [18]: has an antitumor activity

N=C1C=CCC(C(=O)O)N1 (stereo not drawn) [Compound of Ex. 4]
Survival dose (doses causing no death) [9]: 600 mg/kg

O=C1C=CC[C@@H](C(=O)O)N1 [Compound of Ex. 1]
IC50 [1]: 100 µg/mL (≈ 709 µM)
IC50 [2]: 130 µg/mL (≈ 921 µM)
IC50 [3]: 200 µg/mL (≈ 1420 µM)
IC50 [4]: 180 µg/mL (≈ 1280 µM)
IC50 [6]: 90 µg/mL (≈ 638 µM)
Survival dose (doses causing no death) [9]: 1000 mg/kg
IC50 [11]: 90 µg/mL (≈ 638 µM)
IC50 [12]: 90 µg/mL (≈ 638 µM)
IC50 [14]: 100 µg/mL (≈ 709 µM)
